Like-named read-outs stand apart in the source and are kept apart here.
System: Beet Armyworm (Spodoptera exigua, LAPHEG)
Assay: Bioassay on Beet Armyworm (BAW), 128-well diet tray assay
Assay type: in vivo
Description: Certain molecules disclosed in this document were tested against BAW and CL using procedures described in the following examples. In the reporting of the results, the “BAW & CL Rating Table” was used (See Table Section).
Bioassays on BAW were conducted using a 128-well diet tray assay. One to five second instar BAW larvae were placed in each well (3 mL) of the diet tray that had been previously filled with approximately 1.5 mL of artificial diet to which 50 μg/cm^2 of the test molecule (dissolved in 50 μL of 90:10 acetone-water mixture) had been applied (to each of eight wells) and then allowed to dry. Trays were covered with a clear self-adhesive cover, vented to allow gas exchange, and held at 25° C., 14:10 light-dark for five to seven days. Percent mortality was recorded for the larvae in each well; activity in the eight wells was then averaged. The results are indicated in the table entitled “Table ABC: Biological Results” (See Table Section).

[1] = Beet Armyworm, 128-well diet tray assay, read-out: BAW rating
[2] = Species BAW (Beet Armyworm), read-out: BAW (Biological Results, rating)

Compound `O=C(Nc1cc(Cl)c(Cl)c(Cl)c1)c1cc(NC(=O)C2C(c3cc(Cl)cc(Cl)c3)C2(Cl)Cl)ccc1Cl` (stereo not drawn) [PF119, 2-Chloro-5-(trans)-2,2-dichloro-3-(3,5-dichlorophenyl)cyclopropane-1-carboxamido)-N-(3,4,5-trichlorophenyl)benzamide] has a pest or weed control at 50 µg/cm2 [1] of 50 to 100%.
Compound `CC(C)(C)OC(=O)N(C(=O)OC(C)(C)C)c1c(F)ccc(NC(=O)c2cc(NC(=O)[C@H]3[C@H](c4cc(Cl)cc(Cl)c4)C3(Cl)Cl)ccc2Cl)c1F` (relative stereo) [F468, trans-tert-Butyl-N-((tert-butoxy)carbonyl)-N-(3-(2-chloro-5-(2,2-dichloro-3-(3,5-dichlorophenyl)cyclopropane-1-carboxamido)benzamido)-2,6-difluorophenyl)carbamate] has a pest or weed control at 50 µg/cm2 [1] of 0 to 50%.
`CC(C)(C)OC(=O)N1CCc2cc(NC(=O)c3cc(NC(=O)[C@H]4[C@H](c5cc(Cl)cc(Cl)c5)C4(Cl)Cl)ccc3Cl)ccc21` (relative stereo) [F509, tert-Butyl 5-(2-chloro-5-(trans)-(2,2-dichloro-3-(3,5-dichlorophenyl)cyclopropane-1-carboxamido)benzamido)indoline-1-carboxylate] gave a pest or weed control at 50 µg/cm2 [1] of 0 to 50%.
In the case of `C=Cc1cc(Cl)cc(C2C(C(=O)Nc3ccc(Cl)c(C(=O)Nc4ccc(F)c(N(C(=O)OC(C)(C)C)C(=O)OC(C)(C)C)c4F)c3)C2(Cl)Cl)c1` (stereo not drawn) [F523, tert-Butyl-N-((tert-butoxyl)carbonyl)-N-(3-(2-chloro-5-(2,2-dichloro-3-(3-chloro-5-vinylphenyl)cyclopropane-1-carboxamido)benzamido)-2,6-difluorophenyl)carbamate], the pest or weed control at 50 µg/cm2 [1] is reported as 0 to 50%.
Work on `CNc1ccc(NC(=O)c2cc(NC(=O)[C@H]3[C@H](c4cc(Cl)cc(Cl)c4)C3(Cl)Cl)c(Cl)cc2Cl)cc1` (relative stereo) [F256, trans-2,4-dichloro-5-(2,2-dichloro-3-(3,5-dichlorophenyl)cyclopropane-1-carboxamido)-N-(4-(methylamino)phenyl)benzamide] yielded a pest or weed control at 50 µg/cm2 [2] of 0 to 50%.
Work on `CCc1cc(C(F)(C(F)(F)F)C(F)(F)C(F)(F)F)cc(CC)c1NC(=O)c1cc(NC(=O)[C@H]2[C@H](c3cc(Cl)cc(Cl)c3)C2(Cl)Cl)ccc1Cl` (relative stereo) [PF59, trans-2-Chloro-5-(2,2-dichloro-3-(3,5-dichlorophenyl)cyclopropane-1-carboxamido)-N-(2,6-diethyl-4-(perfluorobutan-2-yl)phenyl)benzamide] yielded a pest or weed control at 50 µg/cm2 [1] of 0 to 50%.
`CC(C)(C)OC(=O)N(C(=O)OC(C)(C)C)c1c(F)ccc(NC(=O)c2cc(NC(=O)[C@H]3[C@H](c4cc(Cl)c(Cl)c(Cl)c4)C3(Cl)Cl)ccc2Cl)c1F` [F501, tert-Butyl-N-((tert-butoxy)carbonyl)-N-(3-(2-chloro-5-((1R,3R)-2,2-dichloro-3-(3,4,5-trichlorophenyl)cyclopropane-1-carboxamido)benzamido)-2,6-difluorophenyl)carbamate] was tested, and the pest or weed control at 50 µg/cm2 [1] was 0 to 50%.
Compound `Cc1cc(N(C)C(=O)OC(C)(C)C)ccc1N(C)C(=O)c1cc(NC(=O)C2C(c3cc(Cl)c(Cl)c(Cl)c3)C2(Cl)Cl)ccc1Cl` [F221, trans-tert-Butyl-(4-(2-chloro-5-((1R,3R)-2,2-dichloro-3-(3,4,5-trichlorophenyl)cyclopropane-1-carboxamido)-N-methylbenzamido)-3-methylphenyl)(methyl)carbamate] has a pest or weed control at 50 µg/cm2 [2] of 50 to 100%.
`CC(C)(C)OC(=O)N(C(=O)OC(C)(C)C)c1c(F)ccc(NC(=O)c2cc(NC(=O)C3C(c4cc(Cl)cc(Br)c4)C3(Cl)Cl)ccc2Cl)c1F` (stereo not drawn) [F514, tert-Butyl-N-((tert-butoxy)carbonyl)-N-(3-(5-(3-(3-bromo-5-chlorophenyl)-2,2-dichlorocyclopropane-1-carboxamido)-2-chlorobenzamido)-2,6-difluorophenyl)carbamate] showed a pest or weed control at 50 µg/cm2 [1] of 50 to 100%.
